Reference: PMC8269107, “Lipidation of Temporin-1CEb Derivatives as a Tool for Activity Improvement, Pros and Cons of the Approach” (International Journal of Molecular Sciences, 2021)
Values after ≈ are worked out from the molar mass of the structure shown. Where a SMILES comes first, the peptide text is derived from it. [ ]: non-standard residue; d: D form. The star is where a group is joined. Palmitoyl = CCCCCCCCCCCCCCCC(=O)*; Lauroyl = CCCCCCCCCCCC(=O)*; Pentanoyl = CCCCC(=O)*; AEEA = NCCOCCOCC(=O)O; Ahx = NCCCCCC(=O)O; βAla = NCCC(=O)O

What was measured:
C.albicans CCM 8186 = assay: MIC, broth microdilution; assay type: cell-based, Candida albicans; conditions: C.albicans CCM 8186, 24 h
From the text: (§1) Escherichia coli (PCM 2057 = ATCC 25922), Staphylococcus aureus (PCM 2054 = ATCC 25923), Staphylococcus epidermidis (PCM 2118 = ATCC 14990), Bacillus subtilis (PCM 2224 = ATCC 9799), Bacillus cereus (PCM 482 = ATCC 10702) and Pseudomonas aeruginosa (PCM 499 = ATCC 10145) were obtained from the Polish Collection of Microorganisms. Fungi strains Candida albicans (CCM 8186 = CNTC 49/64), Candida glabrata (CCM 8270 = ATCC 90030), Candida parapsilosis (CCM 8260 = ATCC 22019) and Candida krusei (CCM 8271 = ATCC 6258) were acquired from the Czech Collection of Microorganisms. S. aureus USA300 (wild type strain), the reference strain of Klebsiella pneumoniae (ATCC 13883) and clinical isolates of Pseudomonas aeruginosa (PA1, PA2) collected from nonrelated patients admitted to the Stefan Zeromski Specialist Municipal Hospital in Krakow (Poland) were kindly provided by the research group of the Department of Microbiology, Faculty of Biochemistry, Biophysics and Biotechnology, Jagiellonian University, Krakow, Poland.
(§2) Luria-Bertani broth (LB) and Sabouraud Dextrose broth (SB) (Biocorp, Poland) were used for cultivation of bacteria and fungi strains, respectively. The antimicrobial activity of the peptides were analyzed through determination of MIC (minimal inhibitory concentration) parameters according to Clinical and Laboratory Standards (CLSI) guidelines developed for aerobic bacteria and yeasts, respectively. Mueller-Hinton broth (MHB) was used as the working medium for all bacterial strains, while in the case of fungi, RPMI-1640 (with L-glutamine, without sodium bicarbonate) growth medium buffered with MOPS (morpholinepropanesulfonic acid) and supplemented with 2% glucose was used. Inoculum was prepared from freshly grown cultures of microorganisms at their exponential phase of growth. […] Plates were then incubated for 24 h at 37 °C in the case of bacteria and at 35 °C in the case of fungi. After that time, absorbance was read at 590 nm with a Perkin Elmer plate reader. Cultures without peptide were treated as positive control, while uninoculated media were defined as negative control. All measurements were run at least in triplicate.

C.parapsilosis CCM 8260 = assay: MIC, broth microdilution; assay type: cell-based, Candida parapsilosis; conditions: C.parapsilosis CCM 8260, 24 h
From the text: as §1, §2

C.glabrata CCM 8270 = assay: MIC, broth microdilution; assay type: cell-based, Candida glabrata; conditions: C.glabrata CCM 8270, 24 h
From the text: as §1, §2

primary fibroblasts = assay: Cytotoxicity, MTT assay; assay type: cell-based, human; conditions: MTT, 24 h; for effect on cell viability (in words): fibroblasts, 1 to 50 µg/mL; for IC50: primary Fibroblasts
Method: Human dermal fibroblasts were obtained as previously reported from biopsies of healthy human skin of three donors undergoing a surgery. All procedures were approved by the Ethics Committee of Medicinal University of Gdansk (NKEBN/483/2011 and NKBBN/745/2019-2020). Immortalized human HaCaT keratinocytes (DKFZ Heidelberg, Germany) were obtained commercially.
Both types of cell lines were grown in Dulbecco′s Modified Eagle′s Medium (DMEM) (Sigma-Aldrich, Germany), containing […] of glucose, […] of L- glutamine, sodium pyruvate and sodium bicarbonate. Additionally, the medium was supplemented with 10% FCS (fetal calf serum, Sigma-Aldrich, Germany), 100 U/mL of penicillin and 100 μg/mL of streptomycin (Sigma-Aldrich, Germany). The cells were grown in standard culture dishes (BD, USA) in a humidified atmosphere with 5% CO2 at […], and the medium was changed every 2 days.
The fibroblasts and keratinocytes were seeded at density of 5500 cells per well into 96-well plates suspended in a medium supplemented with 10% FCS. After 24 h from seeding, the media were exchanged with serum- and antibiotic-free DMEM and tested peptides, dissolved in sterile water, which were added, yielding a final concentration ranging from 1 to 50 μg/mL. The cells were then incubated for the next 24 h. At the end of the experiment, the cells were treated with 20 μL of MTT (5 mg/mL in PBS). After 3 h of incubation in the presence of MTT dye, the DMEM medium was discarded and replaced with 6 mM HCl in isopropanol. When the purple crystals of formazan were fully solubilized, absorbance at 570 nm was read.

C.krusei CCM 8271 = assay: MIC, broth microdilution; assay type: cell-based, Candida krusei; conditions: C.krusei CCM 8271, 24 h
From the text: as §1, §2

B. subtilis PCM 2224 = assay: MIC, broth microdilution; assay type: cell-based, Bacillus subtilis; conditions: B. subtilis PCM 2224, 24 h
From the text: as §1, §2

S. aureus PCM 2054 = assay: MIC, broth microdilution; assay type: cell-based, Staphylococcus aureus; conditions: S. aureus PCM 2054, standard Mueller-Hinton broth, 24 h
From the text: as §1, §2

[1] = test system: C. albicans (CCM 8186) biofilm; assay: Biofilm inhibition assay (MTT); assay type: cell-based, Candida albicans; conditions: C. albicans biofilm development, 24 h post-inoculation
Method: In the case of bacteria, an overnight culture of S. aureus in Tryptic Soy Broth (TSB) supplemented with 2% glucose (TSB/+G) was used to prepare inoculum for the experiments. Briefly, 5 mL of 24 h culture was centrifuged at 5000× g, washed with sterile PBS and suspended in a fresh 2 × concentrated TSB/+G. In the case of yeasts, the overnight culture of C. albicans in Sabouraud dextrose broth (SB) was used for inoculum preparation. Similar to above, 5 mL of 24 h culture was centrifuged, washed with PBS and then suspended in sterile 2 × concentrated RPMI-1640 medium (with L-glutamine, without sodium bicarbonate) supplemented with 2% glucose (RPMI-1640/+G). In both cases, the cell concentration of the inoculum was about 1 × 10^7 cells per ml.
For the determination of the inhibitory concentration that reduced biofilm development by 50% (BIC50^, expressed in µg/mL), 100 µL inoculum in 2 × concentrated RPMI-1640/+G medium (in the case of C. albicans) or 2 x concentrated TSB/+G broth (in the case of S. aureus) was transferred to each well of 96-well plates containing 100 µL of serially diluted in water tested compounds. The final concentrations of the compounds were the same as those used in MIC determination studies. The 96-well plates were then incubated for 24 h at 37 °C and 35 °C in the case of bacteria and fungi, respectively. Viability of the microorganisms in the presence of the tested compounds was analyzed by means of MTT assay.
The reduction in biofilm viability was analyzed by means of MTT assay. Briefly, 20 μL of MTT solution (5 mg/mL in PBS) was added to prewashed wells with exchanged medium (180 μL of fresh medium) wells containing bacterial/yeast biofilms. Plates were then incubated in the dark for the next 3 h at 37 °C. After that time, the medium was replaced with 6 mM HCl in isopropanol and, when the reduced MTT was fully dissolved, the plates were read at 570 nm. Activity against fully developed 24 h old biofilm was described as biofilm eradication concentration (BEC50 expressed in µg/mL), which corresponded to the concentration of the compound able to reduce 50% of biofilm viability compared with the growth control.

Row | Compound | MIC100 (C.albicans CCM 8186) [µg/mL] | MIC100 (C.parapsilosis CCM 8260) [µg/mL] | MIC100 (C.glabrata CCM 8270) [µg/mL] | effect on cell viability (in words) (primary fibroblasts) | IC50 (primary fibroblasts) [µg/mL] | MIC100 (C.krusei CCM 8271) [µg/mL] | MIC100 (B. subtilis PCM 2224) [µg/mL] | MIC100 (S. aureus PCM 2054) [µg/mL] | BIC50 [1] [µg/mL]
1 | CC[C@H](C)[C@H](NC(=O)COCCOCCNC(=O)[C@H](Cc1c[nH]cn1)NC(=O)CCNC(=O)CCCCCN)C(=O)N[C@@H](CCCCN)C(=O)N[C@@H](CCCCN)C(=O)N[C@H](C(=O)N[C@@H](CC(C)C)C(=O)N[C@@H](CO)C(=O)N[C@@H](CCCCN)C(=O)N[C@H](C(=O)N[C@@H](CCCCN)C(=O)N[C@@H](CCCCN)C(=O)N[C@@H](CC(C)C)C(=O)N[C@@H](CC(C)C)C(N)=O)[C@@H](C)CC)[C@@H](C)CC [AHX-CAR-PEG-DK5] (H-[Ahx][βAla]H[AEEA]IKKILSKIKKLL-NH2) | >50 | 50 (≈ 26.4 µM) | >50 | neutral or even pro-proliferative | >50 | >50 | 6.25 (≈ 3.31 µM) | >50 | >50
2 | CC[C@H](C)[C@H](NC(=O)CCCCCN)C(=O)N[C@@H](CCCCN)C(=O)N[C@@H](CCCCN)C(=O)N[C@H](C(=O)N[C@@H](CC(C)C)C(=O)N[C@@H](CO)C(=O)N[C@@H](CCCCN)C(=O)N[C@H](C(=O)N[C@@H](CCCCN)C(=O)N[C@@H](CCCCN)C(=O)N[C@@H](CC(C)C)C(=O)N[C@@H](CC(C)C)C(N)=O)[C@@H](C)CC)[C@@H](C)CC [AHX-DK5] (H-[Ahx]IKKILSKIKKLL-NH2) | 12.5 (≈ 8.13 µM) | 12.5 (≈ 8.13 µM) | 12.5 (≈ 8.13 µM) | moderately toxic | 50 (≈ 32.5 µM) | 50 (≈ 32.5 µM) | 0.78 (≈ 0.507 µM) | >50 | 25
3 | CCCCC(=O)NCCC(=O)N[C@@H](Cc1c[nH]cn1)C(=O)NCCOCCOCC(=O)N[C@H](C(=O)N[C@@H](CCCCN)C(=O)N[C@@H](CCCCN)C(=O)N[C@H](C(=O)N[C@@H](CC(C)C)C(=O)N[C@@H](CO)C(=O)N[C@@H](CCCCN)C(=O)N[C@H](C(=O)N[C@@H](CCCCN)C(=O)N[C@@H](CCCCN)C(=O)N[C@@H](CC(C)C)C(=O)N[C@@H](CC(C)C)C(N)=O)[C@@H](C)CC)[C@@H](C)CC)[C@@H](C)CC [C5-CAR-PEG-DK5] ({Pentanoyl-βAla}-H[AEEA]IKKILSKIKKLL-NH2) | >50 | 50 (≈ 26.9 µM) | >50 | neutral or even pro-proliferative | >50 | >50 | 6.25 (≈ 3.36 µM) | >50 | >50
4 | CCCCCCCCCCCC(=O)NCCC(=O)N[C@@H](Cc1c[nH]cn1)C(=O)NCCOCCOCC(=O)N[C@H](C(=O)N[C@@H](CCCCN)C(=O)N[C@@H](CCCCN)C(=O)N[C@H](C(=O)N[C@@H](CC(C)C)C(=O)N[C@@H](CO)C(=O)N[C@@H](CCCCN)C(=O)N[C@H](C(=O)N[C@@H](CCCCN)C(=O)N[C@@H](CCCCN)C(=O)N[C@@H](CC(C)C)C(=O)N[C@@H](CC(C)C)C(N)=O)[C@@H](C)CC)[C@@H](C)CC)[C@@H](C)CC [C12-CAR-PEG-DK5] ({Lauroyl-βAla}-H[AEEA]IKKILSKIKKLL-NH2) | 12.5 (≈ 6.38 µM) | 3.13 (≈ 1.6 µM) | 12.5 (≈ 6.38 µM) |  | 12.5 (≈ 6.38 µM) | 12.5 (≈ 6.38 µM) | 3.13 (≈ 1.6 µM) | 6.25 (≈ 3.19 µM) | 
5 | CCCCCCCCCCCCCCCC(=O)NCCC(=O)N[C@@H](Cc1c[nH]cn1)C(=O)NCCOCCOCC(=O)N[C@H](C(=O)N[C@@H](CCCCN)C(=O)N[C@@H](CCCCN)C(=O)N[C@H](C(=O)N[C@@H](CC(C)C)C(=O)N[C@@H](CO)C(=O)N[C@@H](CCCCN)C(=O)N[C@H](C(=O)N[C@@H](CCCCN)C(=O)N[C@@H](CCCCN)C(=O)N[C@@H](CC(C)C)C(=O)N[C@@H](CC(C)C)C(N)=O)[C@@H](C)CC)[C@@H](C)CC)[C@@H](C)CC [C16-CAR-PEG-DK5] ({Palmitoyl-βAla}-H[AEEA]IKKILSKIKKLL-NH2) | 25 (≈ 12.4 µM) | 6.25 (≈ 3.1 µM) | >50 |  | 4 (≈ 1.98 µM) | 12.5 (≈ 6.2 µM) | 12.5 (≈ 6.2 µM) | >50 | 25
6 | CCCCCCCCCCCCCCCC(=O)N[C@H](C(=O)N[C@@H](CCCCN)C(=O)N[C@@H](CCCCN)C(=O)N[C@H](C(=O)N[C@@H](CC(C)C)C(=O)N[C@@H](CO)C(=O)N[C@@H](CCCCN)C(=O)N[C@H](C(=O)N[C@@H](CCCCN)C(=O)N[C@@H](CCCCN)C(=O)N[C@@H](CC(C)C)C(=O)N[C@@H](CC(C)C)C(N)=O)[C@@H](C)CC)[C@@H](C)CC)[C@@H](C)CC [Compound C16-DK5] (Palmitoyl-IKKILSKIKKLL-NH2) | >50 |  | >50 |  | 7 (≈ 4.21 µM) | 6.25 (≈ 3.76 µM) | 3.13 (≈ 1.88 µM) | >50 | >50
